Experimental data: PMC2922868 (ACS medicinal chemistry letters, 2010)
Entries after “also recorded” stand apart in the source; their conditions may differ. Where two headings read alike, the source gives them in different places.

Tests used:
[1] = system: C-terminal domain of Hsc82 (yeast variant of Hsp90); test: pull-down with San A-amide-Biotin, Hsc82 C-terminal domain; assay type: binding; settings: San A-amide-Biotin as probe, His-fusion, Figure 5 lane 4
[2] = system: N-middle domain of Hsc82 (yeast variant of Hsp90); test: pull-down with San A-amide-Biotin, Hsc82 N-middle construct; assay type: binding; settings: San A-amide-Biotin as probe, His-fusion, Figure 5 lane 5
[3] = system: N-terminal domain of Hsc82 (yeast variant of Hsp90); test: pull-down with San A-amide-Biotin, Hsc82 N-terminal domain; assay type: binding; settings: San A-amide-Biotin as probe, His-fusion, Figure 5 lane 2
[4] = system: full length Hsc82 (yeast variant of Hsp90); test: pull-down with San A-amide-Biotin, Hsc82 full length; assay type: binding; settings: San A-amide-Biotin as probe, His-fusion, Figure 5 lane 6
[5] = ref [6], [8]; cited from earlier work
Hsp90-IP6K2 interaction [6] = test: in vitro pull down binding assay, Hsp90-IP6K2
Hsp90 = Hsp90 ATPase activity / ATP hydrolysis; assay type: biochemical; settings: Supplementary data, Figure S7
[7] = system: middle domain of Hsc82 (yeast variant of Hsp90); assay type: binding; settings: pull-down, San A-amide-Biotin as probe; His-fusion; Figure 5 lane 3
[8] = system: IP6K2 over expressed (K2-O/E) HEK 293 cells; test: cell survival, IP6K2 over expressed vs wild-type HEK 293 cells; assay type: cell-based; settings: 48 hours, CCK-8
Hsp90-IP6K2 interaction [9] = settings: ref [17], cited from earlier work
Hsp90-FKBP52 interaction = settings: not tested in this paper; reference not given; cited from earlier work
Hsp90-IP6K2 pathway = settings: ref [17]; cited from earlier work

Compound | binding to C-terminal domain [1] | binding to N-middle construct [2] | binding to N-terminal domain [3] | binding to full length Hsc82 [4] | apoptosis (in words) [5] | effectiveness relative to novobiocin, IP6K2 binding (in words) (Hsp90-IP6K2 interaction [6]; EC50 ~1 μM vs ~100 μM for novobiocin (ref [17])) | inhibition of IP6K2 binding to Hsp90 (in words) (Hsp90-IP6K2 interaction [6]; native Hsp90 from HeLa cells, His-IP6K2, 0-10 μM) | fold potency over Novobiocin at inhibiting C-terminal client proteins (Hsp90-IP6K2 interaction [6]; versus Novobiocin) | effect on ATP hydrolysis by Hsp90 (Hsp90) | binding to middle domain [7] | fold change in survival difference, with drug vs no drug (3% vs 27% change) ([8]; 25 μM San A-amide, K2-O/E vs wild type HEK 293) | change in cell survival, K2-O/E compared to wild type (control) ([8]; 25 μM San A-amide, change without drug 3%) [%] | cell survival in K2-O/E compared to wild type (in words) ([8]; 25 μM) | induction of cell death through the Hsp90-IP6K2 pathway (in words) ([8]; 25 μM, HEK 293) | EC50 (Hsp90-IP6K2 interaction [9]; read-out: EC50, inhibition of IP6K2 binding to Hsp90) [µM] | effect on IP6K2 binding to Hsp90 (in words) (Hsp90-IP6K2 interaction [9]) | effect on Hsp90-FKBP binding (in words) (Hsp90-FKBP52 interaction) | effect on Hsp90-IP6K2 pathway (in words) (Hsp90-IP6K2 pathway) | IP6K2 binding inhibition at 10 μM (in words) (Hsp90-IP6K2 interaction [9]; 10 μM) | effect on IP6K2 binding to Hsp90 (in words) (Hsp90-IP6K2 interaction [9]; listed as 17AAG)
Sansalvamide A-amide [San A-amide] | no affinity | optimal affinity; also recorded: specifically binds to the N-middle domain of Hsp90 | only a marginally detectable interaction | bound to full length Hsp90 | shown to cause apoptosis | significantly more effective binding inhibitor | able to block both Hsp90-IP6K2 and Hsp90-FKBP interactions; also recorded: blocks the binding of Hsp90 to a client protein; also recorded: inhibits the binding of the C-terminal interacting protein, IP6K2, to Hsp90 | over 100 fold | no affect on ATP hydrolysis | partial affinity | ~ 9 fold | 27 | cell survival is substantially decreased in cells that over-express IP6K2 compared to wild type cells | induces cell death, at least in part, through the Hsp90-IP6K2 pathway |  |  |  |  |  | 
CO[C@@H]1[C@@H](OC(N)=O)[C@@H](O)[C@H](Oc2ccc3c(O)c(NC(=O)c4ccc(O)c(CC=C(C)C)c4)c(=O)oc3c2C)OC1(C)C [novobiocin] |  |  |  |  |  |  |  |  |  |  |  |  |  |  | ~100 | only disrupts Hsp90-IP6K2 | not FKBP binding |  |  | 
C=CCNC1=C2C[C@@H](C)C[C@H](OC)[C@H](O)[C@@H](C)/C=C(\C)[C@H](OC(N)=O)[C@@H](OC)/C=C\C=C(/C)C(=O)NC(=CC1=O)C2=O [17-AAG, 17-allylamino, 17-demethoxygeldanamycin] |  |  |  |  |  |  |  |  |  |  |  |  |  |  |  | did not affect the binding of IP6K2 |  | did not affect this pathway | not inhibited | FKBP and IP6K2 binding to Hsp90 are not affected
